Laboratory results from ChEMBL document CHEMBL6092221, “Discovery of a Novel Macrocyclic Noncovalent CDK7 Inhibitor for Cancer Therapy” (J Med Chem, 2024).
pIC50, pKd: −log10 of the molar value.

Experiments:
CDK7/Cyclin H/MNAT1 = CDK7/Cyclin H/MNAT1 (Homo sapiens, UniProt P50613); experiment: Inhibition of CDK7/CyclinH/MAT1 (unknown origin) in presence of ATP by kinase activity assay; format: protein-complex assay
HCC70 = experiment: cells; settings: Homo sapiens, HCC70, 72 h
Description: Antiproliferative activity against human HCC70 cells assessed as inhibition of cell proliferation incubated for 72 hrs by celltiter-glo assay

[1] = biological target: Cyclin-dependent kinase 7/ cyclin H (Homo sapiens, UniProt P50613); experiment: Binding affinity to CDK7/CyclinH (unknown origin) assessed as dissociation constant by SPR assay; format: protein-complex assay
[2] = Efflux ratio of permeability in human Caco-2 cells; format: ADME, cell-based
[3] = Permeability in human Caco-2 cells; format: ADME, cell-based; settings: read-out: permeability
OVCAR-3 = experiment: cells; settings: Homo sapiens, OVCAR-3, 72 h
Description: Antiproliferative activity against human OVCAR-3 cells assessed as inhibition of cell proliferation incubated for 72 hrs by celltiter-glo assay

[4] = Volume of distribution at steady state in female Balb/c nude mouse at 1 mg/kg, iv; format: ADME, organism-based; settings: in vivo, read-out: Vdss
[5] = Cmax in female Balb/c nude mouse at 5 mg/kg, po; format: ADME, organism-based; settings: in vivo
[6] = AUC(0 to t) in female Balb/c nude mouse at 5 mg/kg, po; format: ADME, organism-based; settings: in vivo
[7] = Clearance in female Balb/c nude mouse at 1 mg/kg, iv; format: ADME, organism-based; settings: in vivo
[8] = Half life in female Balb/c nude mouse at 5 mg/kg, po; format: ADME, organism-based; settings: in vivo
[9] = Oral bioavailability in female Balb/c nude mouse at 5 mg/kg; format: ADME, organism-based; settings: in vivo

CDK7/Cyclin H/MNAT1, sequence (P51946 whole entry): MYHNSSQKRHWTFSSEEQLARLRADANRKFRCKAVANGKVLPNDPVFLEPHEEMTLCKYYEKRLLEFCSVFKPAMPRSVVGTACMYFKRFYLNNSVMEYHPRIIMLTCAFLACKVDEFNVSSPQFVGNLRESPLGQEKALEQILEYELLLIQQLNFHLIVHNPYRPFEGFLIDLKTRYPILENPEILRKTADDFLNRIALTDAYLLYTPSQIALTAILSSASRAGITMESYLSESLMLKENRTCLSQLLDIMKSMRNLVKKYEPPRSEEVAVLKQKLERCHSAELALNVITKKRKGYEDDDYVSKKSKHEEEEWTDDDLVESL
CDK7/Cyclin H/MNAT1, sequence (P50613 whole entry): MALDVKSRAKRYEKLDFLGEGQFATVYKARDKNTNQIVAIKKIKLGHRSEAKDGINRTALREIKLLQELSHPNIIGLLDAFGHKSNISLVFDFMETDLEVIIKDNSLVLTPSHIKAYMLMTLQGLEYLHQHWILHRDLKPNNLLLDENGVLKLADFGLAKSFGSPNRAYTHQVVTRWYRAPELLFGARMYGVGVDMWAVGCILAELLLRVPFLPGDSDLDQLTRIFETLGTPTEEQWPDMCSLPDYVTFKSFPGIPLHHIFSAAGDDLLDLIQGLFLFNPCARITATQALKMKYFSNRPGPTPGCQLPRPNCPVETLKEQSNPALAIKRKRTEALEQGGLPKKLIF
CDK7/Cyclin H/MNAT1, sequence (P51948 whole entry, further chain): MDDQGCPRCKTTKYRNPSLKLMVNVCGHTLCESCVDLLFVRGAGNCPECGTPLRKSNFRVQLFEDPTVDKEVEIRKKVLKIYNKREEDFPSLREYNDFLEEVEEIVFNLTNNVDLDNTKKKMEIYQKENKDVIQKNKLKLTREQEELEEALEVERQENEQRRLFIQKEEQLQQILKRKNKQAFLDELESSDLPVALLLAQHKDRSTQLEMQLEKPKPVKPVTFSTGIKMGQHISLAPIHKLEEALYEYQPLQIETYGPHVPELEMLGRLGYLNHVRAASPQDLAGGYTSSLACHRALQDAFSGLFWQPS
Cyclin-dependent kinase 7/ cyclin H, sequence (P51946 whole entry): as the sequence (P51946 whole entry) above
Cyclin-dependent kinase 7/ cyclin H, sequence (P50613 whole entry): as the sequence (P50613 whole entry) above

O=C1NCCCCN[C@@H]2CC[C@H](C2)Nc2ncc(C(F)(F)F)c(n2)-c2c[nH]c3cc1ccc23
pIC50 (CDK7/Cyclin H/MNAT1): 8.34
pIC50 (HCC70): 6.68
pKd [1]: 9.85

CP(C)(=O)c1c2ccc3c(c[nH]c13)-c1nc(ncc1C(F)(F)F)N[C@H]1CC[C@@H](C1)NCCCCCCNC2=O
pIC50 (HCC70): 6.37

O=C1NCCOCCN2CC[C@@H](C2)Nc2ncc(C(F)(F)F)c(n2)-c2c[nH]c3cc1ccc23
pIC50 (CDK7/Cyclin H/MNAT1): 7.96
pIC50 (HCC70): 5.74

CN1C[C@H](F)CCN(C)[C@H]2CC[C@@H](C2)Nc2ncc(C(F)(F)F)c(n2)-c2c[nH]c3c(P(C)(C)=O)c(ccc23)C1=O
efflux ratio [2]: 22.3
Papp [3]: 0.9 ×10⁻⁶ cm/s
pIC50 (OVCAR-3): 7.20
pIC50 (HCC70): 7.36

CN1C[C@@H](F)CCN(C)[C@H]2CC[C@@H](C2)Nc2ncc(C(F)(F)F)c(n2)-c2c[nH]c3c(P(C)(C)=O)c(ccc23)C1=O
efflux ratio [2]: 11.2
Vd [4]: 3.6 L/kg
Cmax [5]: 170 ng/mL
Papp [3]: 1.91 ×10⁻⁶ cm/s
AUC(0-t) [6]: 365 ng·h/mL
clearance [7]: 55.3 mL/min/kg
half-life [8]: 2.4 h
pIC50 (OVCAR-3): 7.23
pIC50 (HCC70): 7.18
pKd [1]: 9.92
bioavailability [9]: 24.3%

CP(C)(=O)c1c2ccc3c(c[nH]c13)-c1nc(ncc1C(F)(F)F)N[C@H]1CC[C@@H](C1)NCCCCCNC2=O
pIC50 (HCC70): 6.69
